Laboratory results: PubChem BioAssay (NCI)
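GI50 is the concentration that inhibits growth by half. TGI is the concentration that stops growth completely.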

Assays:
Assay in all cases: growth of human tumour cells (NCI), 384-well format
KM12 colon = test system: KM12 colon
NCI-H226 lung = test system: NCI-H226 lung
OVCAR-5 ovarian = test system: OVCAR-5 ovarian
NCI-H322M lung = test system: NCI-H322M lung
NCI/ADR-RES ovarian = test system: NCI/ADR-RES ovarian
EKVX NSCLC = test system: EKVX NSCLC
NCI-H23 lung = test system: NCI-H23 lung
MALME-3M melanoma = test system: MALME-3M melanoma
IGROV1 ovarian = test system: IGROV1 ovarian
HOP-92 NSCLC = test system: HOP-92 NSCLC
SF-268 CNS = test system: SF-268 CNS
UO-31 renal = test system: UO-31 renal
OVCAR-4 ovarian = test system: OVCAR-4 ovarian
T-47D breast = test system: T-47D breast
A498 renal = test system: A498 renal
CAKI-1 renal = test system: CAKI-1 renal
HCT-15 colon = test system: HCT-15 colon
SNB-19 CNS = test system: SNB-19 CNS
SK-OV-3 ovarian = test system: SK-OV-3 ovarian
UACC-257 melanoma = test system: UACC-257 melanoma
SN12C renal = test system: SN12C renal
ACHN renal = test system: ACHN renal
TK-10 renal = test system: TK-10 renal
RXF 393 renal = test system: RXF 393 renal
MCF7 breast = test system: MCF7 breast
PC-3 prostate = test system: PC-3 prostate
A549 NSCLC = test system: A549 NSCLC
HOP-62 NSCLC = test system: HOP-62 NSCLC
LOX IMVI melanoma = test system: LOX IMVI melanoma
OVCAR-8 ovarian = test system: OVCAR-8 ovarian
MDA-MB-231 breast = test system: MDA-MB-231 breast
HS 578T breast = test system: HS 578T breast
DU-145 prostate = test system: DU-145 prostate
OVCAR-3 ovarian = test system: OVCAR-3 ovarian
BT-549 breast = test system: BT-549 breast
SK-MEL-5 melanoma = test system: SK-MEL-5 melanoma
MDA-MB-435 melanoma = test system: MDA-MB-435 melanoma
SK-MEL-28 melanoma = test system: SK-MEL-28 melanoma
U251 glioblastoma = test system: U251 glioblastoma
SF-539 CNS = test system: SF-539 CNS
RPMI-8226 leukemia = test system: RPMI-8226 leukemia
MDA-MB-468 breast = test system: MDA-MB-468 breast
SR leukemia = test system: SR leukemia
786-0 renal = test system: 786-0 renal
COLO 205 colon = test system: COLO 205 colon
NCI-H460 NSCLC = test system: NCI-H460 NSCLC
MOLT-4 leukemia = test system: MOLT-4 leukemia
UACC-62 melanoma = test system: UACC-62 melanoma
NCI-H522 lung = test system: NCI-H522 lung
SNB-75 CNS = test system: SNB-75 CNS
SW-620 colon = test system: SW-620 colon
SF-295 CNS = test system: SF-295 CNS
HT29 colon = test system: HT29 colon
M14 melanoma = test system: M14 melanoma
HCC-2998 colon = test system: HCC-2998 colon
CCRF-CEM leukemia = test system: CCRF-CEM leukemia
SK-MEL-2 melanoma = test system: SK-MEL-2 melanoma
HL-60(TB) leukemia = test system: HL-60(TB) leukemia

Structure (SMILES): CC(=O)O[C@@]12CO[C@@H]1C[C@H](O)[C@@]1(C)C(=O)[C@H](O)C3=C(C)[C@@H](OC(=O)[C@H](O)[C@@H](NC(=O)OC(C)(C)C)c4ccccc4)C[C@@](O)([C@@H](OC(=O)c4ccccc4)[C@H]21)C3(C)C
- TGI (KM12 colon): 24 µM
- TGI (NCI-H226 lung): 22.5 µM
- TGI (OVCAR-5 ovarian): 36.3 µM
- TGI (NCI-H322M lung): 31.3 µM
- GI50 (NCI/ADR-RES ovarian): 0.782 µM
- TGI (NCI/ADR-RES ovarian): 2.26 µM
- TGI (EKVX NSCLC): 35.8 µM
- TGI (NCI-H23 lung): 27.3 µM
- GI50 (MALME-3M melanoma): 12 µM
- TGI (MALME-3M melanoma): 24.8 µM
- TGI (IGROV1 ovarian): 27.8 µM
- TGI (HOP-92 NSCLC): 33.2 µM
- TGI (SF-268 CNS): 36.1 µM
- GI50 (UO-31 renal): 0.0791 µM
- TGI (UO-31 renal): 51.8 µM
- TGI (OVCAR-4 ovarian): 39.9 µM
- TGI (T-47D breast): > 100 µM
- TGI (A498 renal): 18.7 µM
- TGI (CAKI-1 renal): 18 µM
- GI50 (HCT-15 colon): < 0.0151 µM
- TGI (HCT-15 colon): 1.79 µM
- TGI (SNB-19 CNS): > 70.7 µM
- TGI (SK-OV-3 ovarian): > 100 µM
- TGI (UACC-257 melanoma): 31.6 µM
- TGI (SN12C renal): 21.2 µM
- GI50 (ACHN renal): 0.0201 µM
- TGI (ACHN renal): 20.9 µM
- GI50 (TK-10 renal): < 0.0143 µM
- TGI (TK-10 renal): > 47.4 µM
- TGI (RXF 393 renal): < 0.0108 µM
- TGI (MCF7 breast): 24.7 µM
- TGI (PC-3 prostate): 37.5 µM
- TGI (A549 NSCLC): 29.1 µM
- TGI (HOP-62 NSCLC): 17.3 µM
- TGI (LOX IMVI melanoma): 17.4 µM

Structure (SMILES): C/C=C/C/C=C/CCC(=O)[C@H]1O[C@H]1C(N)=O
- GI50 (KM12 colon): 13 µM
- TGI (KM12 colon): 26.1 µM
- GI50 (OVCAR-8 ovarian): 14.2 µM
- TGI (OVCAR-8 ovarian): 27.7 µM
- GI50 (MDA-MB-231 breast): 11.6 µM
- TGI (MDA-MB-231 breast): 24.5 µM
- GI50 (NCI-H226 lung): 7.61 µM
- TGI (NCI-H226 lung): 19.7 µM
- GI50 (OVCAR-5 ovarian): 17.6 µM
- TGI (OVCAR-5 ovarian): 33.2 µM
- GI50 (NCI-H322M lung): 17.8 µM
- TGI (NCI-H322M lung): 31.9 µM
- GI50 (NCI/ADR-RES ovarian): 15.4 µM
- TGI (NCI/ADR-RES ovarian): 31.1 µM
- GI50 (HS 578T breast): 8.38 µM
- TGI (HS 578T breast): 21 µM
- GI50 (DU-145 prostate): 12.7 µM
- TGI (DU-145 prostate): 25.4 µM
- GI50 (EKVX NSCLC): 6.48 µM
- TGI (EKVX NSCLC): 18.9 µM
- GI50 (NCI-H23 lung): 3.72 µM
- TGI (NCI-H23 lung): 12.7 µM
- GI50 (OVCAR-3 ovarian): 12.3 µM
- TGI (OVCAR-3 ovarian): 24.8 µM
- GI50 (BT-549 breast): 3.21 µM
- TGI (BT-549 breast): 12.8 µM
- GI50 (MALME-3M melanoma): 12.7 µM
- TGI (MALME-3M melanoma): 25.3 µM
- GI50 (IGROV1 ovarian): 14.6 µM
- TGI (IGROV1 ovarian): 28.8 µM
- GI50 (HOP-92 NSCLC): 11.5 µM
- TGI (HOP-92 NSCLC): 23.9 µM
- GI50 (SF-268 CNS): 14.9 µM
- TGI (SF-268 CNS): 30 µM
- GI50 (SK-MEL-5 melanoma): 7.25 µM
- TGI (SK-MEL-5 melanoma): 19.8 µM
- GI50 (MDA-MB-435 melanoma): 16 µM
- TGI (MDA-MB-435 melanoma): 30 µM
- GI50 (OVCAR-4 ovarian): 3.76 µM
- TGI (OVCAR-4 ovarian): 15.6 µM
- GI50 (T-47D breast): 5.89 µM
- TGI (T-47D breast): 17.6 µM
- GI50 (SK-MEL-28 melanoma): 16.3 µM
- TGI (SK-MEL-28 melanoma): 30.2 µM
- GI50 (A498 renal): 17.7 µM
- TGI (A498 renal): 31.7 µM
- GI50 (CAKI-1 renal): 14 µM
- TGI (CAKI-1 renal): 27 µM
- GI50 (HCT-15 colon): 6.61 µM
- TGI (HCT-15 colon): 19.6 µM
- GI50 (SNB-19 CNS): 14.1 µM
- TGI (SNB-19 CNS): 28.2 µM
- GI50 (U251 glioblastoma): 11.7 µM
- TGI (U251 glioblastoma): 24.7 µM
- GI50 (SF-539 CNS): 13.8 µM
- TGI (SF-539 CNS): 27.5 µM
- GI50 (RPMI-8226 leukemia): 2.82 µM
- TGI (RPMI-8226 leukemia): 6.86 µM
- GI50 (SK-OV-3 ovarian): 16.7 µM
- TGI (SK-OV-3 ovarian): 33.2 µM
- GI50 (MDA-MB-468 breast): 2.17 µM
- TGI (MDA-MB-468 breast): 4.86 µM
- GI50 (SR leukemia): 2.21 µM
- TGI (SR leukemia): 4.91 µM
- GI50 (786-0 renal): 14.4 µM
- TGI (786-0 renal): 28.2 µM
- GI50 (COLO 205 colon): 21 µM
- TGI (COLO 205 colon): 35.4 µM
- GI50 (UACC-257 melanoma): 3.27 µM
- TGI (UACC-257 melanoma): 9.64 µM
- GI50 (SN12C renal): 13.4 µM
- TGI (SN12C renal): 26.4 µM
- GI50 (NCI-H460 NSCLC): 12.3 µM
- TGI (NCI-H460 NSCLC): 25 µM
- GI50 (MOLT-4 leukemia): 4.91 µM
- TGI (MOLT-4 leukemia): 16.9 µM
- GI50 (UACC-62 melanoma): 12.8 µM
- TGI (UACC-62 melanoma): 27.1 µM
- GI50 (NCI-H522 lung): 3.29 µM
- TGI (NCI-H522 lung): 11.3 µM
- GI50 (ACHN renal): 16.9 µM
- TGI (ACHN renal): 30.7 µM
- GI50 (SNB-75 CNS): 2.19 µM
- TGI (SNB-75 CNS): 7.15 µM
- GI50 (TK-10 renal): 18.1 µM
- TGI (TK-10 renal): 32.1 µM
- GI50 (RXF 393 renal): 0.407 µM
- TGI (RXF 393 renal): 3.86 µM
- GI50 (MCF7 breast): 5.89 µM
- TGI (MCF7 breast): 18.4 µM
- GI50 (SW-620 colon): 14 µM
- TGI (SW-620 colon): 27.3 µM
- GI50 (SF-295 CNS): 11.9 µM
- TGI (SF-295 CNS): 24.6 µM
- GI50 (HT29 colon): 18.1 µM
- TGI (HT29 colon): 32.7 µM
- GI50 (PC-3 prostate): 11.1 µM
- TGI (PC-3 prostate): 23.4 µM
- GI50 (A549 NSCLC): 16.6 µM
- TGI (A549 NSCLC): 30.4 µM
- GI50 (M14 melanoma): 12.2 µM
- TGI (M14 melanoma): 25 µM
- GI50 (HCC-2998 colon): 12.7 µM
- TGI (HCC-2998 colon): 25.3 µM
- GI50 (HOP-62 NSCLC): 1.34 µM
- TGI (HOP-62 NSCLC): 5.19 µM
- GI50 (CCRF-CEM leukemia): 3.26 µM
- TGI (CCRF-CEM leukemia): 11.3 µM
- GI50 (SK-MEL-2 melanoma): 8.59 µM
- TGI (SK-MEL-2 melanoma): 20.3 µM
- GI50 (HL-60(TB) leukemia): 7.3 µM
- TGI (HL-60(TB) leukemia): 19.3 µM
